Consider ten compounds from ChEMBL document CHEMBL1201862, “PubChem BioAssay data set” (2004).

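In this assay, cells in 96-well plates receive the compound at five concentrations for 48 hours. Endpoints are linearly interpolated between the surrounding concentrations. The concentration for 50% growth inhibition is given as GI50.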 Calls of active or inactive are those of the source. Cut-off read from the data, not from the text of the source: active = GI50 up to about 1.1 µM and inactive = higher.

Some test systems named below: ACHN; K562; NCI-H226; HCT-116; MCF7; UO-31; CCRF-CEM; OVCAR-4; OVCAR-5; SF-295; NCI-H522; M14; PC-3; SF-268; IGROV-1; HCT-15; SNB-19; MDA-MB-435; SK-MEL-5; NCI/ADR-RES.
Experiment in all cases: inhibition of tumour cell growth, NCI panel, 48 h

For the compound `CCC(C)C(NC(=O)c1cccc2c(=O)c3ccccc3[nH]c12)C(=O)O` (centres undefined), the GI50 in the experiment on ACHN is 86.7 µM (inactive); in the experiment on K562, 91.8 µM (inactive); with NCI-H226 it was > 100 µM (inactive); with HCT-116, > 100 µM (inactive); in the experiment with MCF7, > 100 µM (inactive); in the experiment on UO-31 it was 48.6 µM (inactive). In addition, the GI50 in the experiment on CCRF-CEM was 64 µM (inactive); in the experiment on OVCAR-4, 43.8 µM (inactive); in the experiment with OVCAR-5 it was > 100 µM (inactive); in the experiment with SF-295, 83.4 µM (inactive); in the experiment on NCI-H522 it was > 100 µM (inactive); with M14, > 100 µM (inactive). The GI50 was > 100 µM (inactive) in the experiment on PC-3; 87.5 µM (inactive) with SF-268; 96.8 µM (inactive) in the experiment on IGROV-1; greater than 100 µM in the experiment with HCT-15; 99.5 µM (inactive) with SNB-19; > 100 µM (inactive) with MDA-MB-435. In addition, the GI50 in the experiment with SK-MEL-5 and in the experiment on NCI/ADR-RES was > 100 µM (inactive) throughout.
`CCOC(=O)P(=O)(O)c1ccc(N(C)Cc2ccccc2)cc1`: the GI50 in the experiment on ACHN, in the experiment with K562, in the experiment on NCI-H226, in the experiment on HCT-116, in the experiment with MCF7 and with UO-31 was > 100 µM (inactive) in each case. The GI50 in the experiment with CCRF-CEM, with OVCAR-4, in the experiment with OVCAR-5, in the experiment with SF-295, in the experiment with NCI-H522 and in the experiment with M14 was > 100 µM (inactive) throughout. The GI50 in the experiment on PC-3 was > 100 µM (inactive); in the experiment on SF-268, > 100 µM (inactive); in the experiment with IGROV-1 it was > 100 µM (inactive); with HCT-15 it was greater than 100 µM; with SNB-19 it was > 100 µM (inactive); in the experiment with MDA-MB-435 it was > 100 µM (inactive). Moreover, the GI50 in the experiment on SK-MEL-5 and in the experiment on NCI/ADR-RES was > 100 µM (inactive) each time.
With `CCOC(=O)C(=O)C(CCC(=O)c1ccc2ccccc2c1O)C(=O)OCC` (centres undefined), the GI50 in the experiment on ACHN was > 100 µM (inactive); in the experiment on K562 it was > 100 µM (inactive); in the experiment on NCI-H226 it was 38.5 µM (inactive); in the experiment with HCT-116, > 100 µM (inactive); in the experiment on MCF7, > 100 µM (inactive); in the experiment on UO-31, > 100 µM (inactive). Besides, the GI50 with CCRF-CEM, in the experiment with OVCAR-4, in the experiment on OVCAR-5, in the experiment on SF-295, in the experiment on NCI-H522 and with M14 was > 100 µM (inactive) throughout. Also, the GI50 is > 100 µM (inactive) with PC-3; > 100 µM (inactive) with SF-268; > 100 µM (inactive) in the experiment with IGROV-1; greater than 100 µM with HCT-15; > 100 µM (inactive) in the experiment with SNB-19; > 100 µM (inactive) in the experiment with MDA-MB-435. Besides, the GI50 in the experiment on SK-MEL-5 and with NCI/ADR-RES was > 100 µM (inactive) in each case.
Regarding `COC(=O)c1ccc2c(c1)CC1(C2)Cc2cc3c(c(C(=O)OC)c2C1)CCCC3` (centres undefined), the GI50 was 47.8 µM (inactive) with ACHN; 41.1 µM (inactive) in the experiment with K562; 96.8 µM (inactive) in the experiment on NCI-H226; 44.6 µM (inactive) in the experiment with HCT-116; 68.5 µM (inactive) with MCF7; > 100 µM (inactive) with UO-31. Further, the GI50 with CCRF-CEM is 48.6 µM (inactive); in the experiment with OVCAR-4 it was 50.5 µM (inactive); in the experiment with OVCAR-5, > 100 µM (inactive); in the experiment on SF-295 it was 50 µM (inactive); in the experiment with NCI-H522, > 100 µM (inactive); in the experiment on PC-3 it was 54.1 µM (inactive). In addition, the GI50 in the experiment with SF-268 was > 100 µM (inactive); in the experiment on IGROV-1, > 100 µM (inactive); in the experiment on HCT-15 it was 67.8 µM; in the experiment on MDA-MB-435, 84.1 µM (inactive); with SK-MEL-5 it was 21.2 µM (inactive); with NCI/ADR-RES, 82.8 µM (inactive).
For the compound `O=C(Nc1nc(C23CC4CC(CC(C4)C2)C3)cs1)c1cc2cc(Br)cc(Br)c2oc1=O`, the GI50 in the experiment on ACHN is > 100 µM (inactive); with K562 it was 42.5 µM (inactive); with NCI-H226, 33.2 µM (inactive); in the experiment on HCT-116, 59 µM (inactive); with MCF7, > 100 µM (inactive); in the experiment with UO-31 it was > 100 µM (inactive). The GI50 with CCRF-CEM was 27.7 µM (inactive); in the experiment with OVCAR-4, 58.1 µM (inactive); in the experiment on OVCAR-5, > 100 µM (inactive); with SF-295 it was 40.6 µM (inactive); with NCI-H522 it was > 100 µM (inactive); in the experiment on PC-3 it was 71.1 µM (inactive). The GI50 with SF-268 was 37.8 µM (inactive); in the experiment with IGROV-1 it was > 100 µM (inactive); in the experiment with HCT-15, greater than 100 µM; in the experiment with SNB-19, 41.8 µM (inactive); in the experiment with MDA-MB-435, 67.5 µM (inactive); in the experiment on SK-MEL-5, > 100 µM (inactive). In addition, in the experiment on NCI/ADR-RES, the GI50 is > 100 µM (inactive).
Regarding `c1ccc(CNc2nncc3[nH]cnc23)cc1`, the GI50 with ACHN, in the experiment with K562, with NCI-H226, in the experiment on HCT-116, in the experiment with MCF7 and in the experiment with UO-31 was > 100 µM (inactive) each time. Further, the GI50 with CCRF-CEM, with OVCAR-4, with OVCAR-5, in the experiment on SF-295, in the experiment on NCI-H522 and in the experiment on M14 was > 100 µM (inactive) each time. Besides, the GI50 was > 100 µM (inactive) in the experiment with PC-3; > 100 µM (inactive) in the experiment on IGROV-1; greater than 100 µM in the experiment with HCT-15; > 100 µM (inactive) with MDA-MB-435; > 100 µM (inactive) in the experiment with SK-MEL-5; > 100 µM (inactive) in the experiment on NCI/ADR-RES.
For the compound `COC1(OC)N=C(N)C2(C#N)C3(C(=O)N(C(C)C)N=C3C)C12C#N` (centres undefined), the GI50 in the experiment with ACHN, in the experiment on K562, in the experiment on NCI-H226, in the experiment on HCT-116, in the experiment on MCF7 and in the experiment on UO-31 was > 100 µM (inactive) in each case. Moreover, the GI50 in the experiment on CCRF-CEM, in the experiment with OVCAR-4, in the experiment with OVCAR-5, in the experiment with SF-295, in the experiment with NCI-H522 and in the experiment with M14 was > 100 µM (inactive) in each case. Further, the GI50 in the experiment on PC-3 is > 100 µM (inactive); in the experiment with SF-268, > 100 µM (inactive); in the experiment with IGROV-1, > 100 µM (inactive); in the experiment with HCT-15, greater than 100 µM; in the experiment with SNB-19 it was > 100 µM (inactive); with MDA-MB-435, > 100 µM (inactive). Further, in the experiment with NCI/ADR-RES, the GI50 was > 100 µM (inactive).
In the case of `C[n+]1c(-c2ccc(/C=N/Nc3ccnc(N/N=C/c4ccc(-c5cn6ccsc6[n+]5C)cc4)n3)cc2)cn2ccsc21`, the GI50 is 23.9 µM (inactive) in the experiment with ACHN; 12.1 µM (inactive) in the experiment with K562; 17.7 µM (inactive) in the experiment on NCI-H226; 48.4 µM (inactive) in the experiment on MCF7; 18.8 µM (inactive) in the experiment on UO-31; 14.9 µM (inactive) in the experiment on CCRF-CEM. In addition, the GI50 was 51.9 µM (inactive) with OVCAR-4; 19.1 µM (inactive) in the experiment on OVCAR-5; 92.7 µM (inactive) in the experiment with NCI-H522; 8.81 µM (inactive) in the experiment with M14; 30.2 µM (inactive) in the experiment with PC-3; 19.1 µM (inactive) in the experiment with IGROV-1. For the same compound, the GI50 in the experiment on HCT-15 was 27.5 µM; in the experiment with SNB-19, 32.8 µM (inactive); in the experiment on MDA-MB-435, 4.57 µM (inactive); in the experiment with SK-MEL-5, 19.3 µM (inactive); with NCI/ADR-RES, 39.7 µM (inactive).
Consider `N#Cc1c(O)c2ccccc2[nH]c1=O`, for which the GI50 with ACHN, with K562, in the experiment on NCI-H226, with HCT-116, in the experiment on MCF7 and with UO-31 was > 100 µM (inactive) throughout. The GI50 in the experiment with CCRF-CEM, with OVCAR-4, with OVCAR-5, with SF-295, in the experiment with NCI-H522 and in the experiment with M14 was > 100 µM (inactive) in each case. Besides, the GI50 is > 100 µM (inactive) in the experiment with PC-3; > 100 µM (inactive) in the experiment on IGROV-1; greater than 100 µM with HCT-15; > 100 µM (inactive) with SNB-19; > 100 µM (inactive) in the experiment with MDA-MB-435; > 100 µM (inactive) with SK-MEL-5. Moreover, the GI50 in the experiment on NCI/ADR-RES was > 100 µM (inactive).
With `Cn1c(N)c(/C=N/NC(=O)CC#N)c(=O)n(C)c1=O`, the GI50 in the experiment on ACHN, in the experiment with NCI-H226, in the experiment with HCT-116, in the experiment on MCF7, with UO-31 and in the experiment with CCRF-CEM was > 100 µM (inactive) in each case. Also, the GI50 with OVCAR-4, in the experiment on OVCAR-5, with SF-295, in the experiment with NCI-H522, with M14 and in the experiment with PC-3 was > 100 µM (inactive) each time. Besides, the GI50 in the experiment with SF-268 is > 100 µM (inactive); with IGROV-1, > 100 µM (inactive); with HCT-15 it was greater than 100 µM; in the experiment on SNB-19 it was > 100 µM (inactive); with MDA-MB-435 it was > 100 µM (inactive); with SK-MEL-5, > 100 µM (inactive). Also, in the experiment with NCI/ADR-RES, the GI50 was > 100 µM (inactive).
